Data from the NIST ThermoML archive (doi:10.1016/j.jct.2007.11.009).

Assay: xn = mol fraction of the nth substance listed
Settings: Liquid, Vibrating tube method

CCCCCCCC [octane] + c1ccccc1
mass density [kg/m3]
Settings | x1 = 0.1097 | x1 = 0.2036 | x1 = 0.2984 | x1 = 0.4069 | x1 = 0.5027 | x1 = 0.5904 | x1 = 0.6989 | x1 = 0.7964 | x1 = 0.904 | x1 = 1
318.15 K, 100 kPa | 818.2 | 794.1 | 773.6 | 753.6 | 738.1 | 725.8 | 712.4 | 701.5 | 691.1 | 682.8
318.15 K, 2130 kPa | 820.2 | 796.1 | 775.6 | 755.6 | 740.1 | 727.8 | 714.4 | 703.5 | 693.1 | 684.7
318.15 K, 4150 kPa | 822.1 | 798.1 | 777.6 | 757.6 | 742.1 | 729.8 | 716.4 | 705.5 | 695.1 | 686.7
318.15 K, 6180 kPa | 824 | 800 | 779.5 | 759.5 | 744 | 731.7 | 718.3 | 707.4 | 696.9 | 688.6
318.15 K, 8210 kPa | 825.8 | 801.9 | 781.4 | 761.4 | 745.9 | 733.6 | 720.2 | 709.3 | 698.8 | 690.4
318.15 K, 10230 kPa | 827.7 | 803.7 | 783.3 | 763.3 | 747.8 | 735.5 | 722 | 711.1 | 700.6 | 692.2
318.15 K, 11250 kPa | 828.6 | 804.6 | 784.2 | 764.2 | 748.7 | 736.4 | 722.9 | 712 | 701.5 | 693.1
318.15 K, 12260 kPa | 829.4 | 805.5 | 785.1 | 765.1 | 749.6 | 737.3 | 723.8 | 713 | 702.4 | 694
318.15 K, 14290 kPa | 831.2 | 807.3 | 786.8 | 766.9 | 751.4 | 739.1 | 725.6 | 714.7 | 704.2 | 695.7
318.15 K, 16310 kPa | 832.9 | 809 | 788.6 | 768.6 | 753.2 | 740.8 | 727.3 | 716.4 | 705.9 | 697.4
318.15 K, 18340 kPa | 834.6 | 810.7 | 790.3 | 770.3 | 754.9 | 742.5 | 729 | 718.1 | 707.5 | 699.1
318.15 K, 20370 kPa | 836.2 | 812.4 | 792 | 772 | 756.6 | 744.2 | 730.7 | 719.8 | 709.2 | 700.7
318.15 K, 22390 kPa | 837.9 | 814.1 | 793.6 | 773.7 | 758.2 | 745.8 | 732.3 | 721.4 | 710.8 | 702.3
318.15 K, 24420 kPa | 839.5 | 815.7 | 795.3 | 775.3 | 759.8 | 747.4 | 733.9 | 723 | 712.4 | 703.9
318.15 K, 26450 kPa | 841 | 817.3 | 796.8 | 776.9 | 761.4 | 749 | 735.5 | 724.5 | 713.9 | 705.4
318.15 K, 28470 kPa | 842.6 | 818.8 | 798.5 | 778.5 | 763 | 750.6 | 737 | 726.1 | 715.4 | 706.9
318.15 K, 29490 kPa | 843.3 | 819.6 | 799.2 | 779.2 | 763.7 | 751.4 | 737.8 | 726.8 | 716.1 | 707.6
318.15 K, 30500 kPa | 844.1 | 820.4 | 799.9 | 780 | 764.5 | 752.1 | 738.5 | 727.5 | 716.9 | 708.3
318.15 K, 32530 kPa | 845.6 | 821.9 | 801.4 | 781.5 | 766 | 753.6 | 740 | 729 | 718.3 | 709.7
318.15 K, 34550 kPa | 847.1 | 823.4 | 802.9 | 783 | 767.5 | 755.1 | 741.5 | 730.5 | 719.7 | 711.2
318.15 K, 36580 kPa | 848.5 | 824.8 | 804.4 | 784.4 | 768.9 | 756.5 | 742.9 | 731.9 | 721.1 | 712.5
318.15 K, 38600 kPa | 850 | 826.3 | 805.8 | 785.9 | 770.4 | 757.9 | 744.3 | 733.3 | 722.5 | 713.9
318.15 K, 39620 kPa | 850.7 | 827 | 806.5 | 786.6 | 771.1 | 758.6 | 745 | 734 | 723.2 | 714.6
328.15 K, 100 kPa | 807.9 | 784.5 | 764.1 | 744.3 | 729.2 | 717 | 704 | 693.3 | 683 | 674.5
328.15 K, 2130 kPa | 810 | 786.7 | 766.2 | 746.5 | 731.4 | 719.1 | 706.1 | 695.5 | 685.1 | 676.6
328.15 K, 4150 kPa | 812.1 | 788.7 | 768.3 | 748.6 | 733.5 | 721.2 | 708.2 | 697.6 | 687.2 | 678.7
328.15 K, 6180 kPa | 814.1 | 790.8 | 770.4 | 750.7 | 735.6 | 723.3 | 710.3 | 699.7 | 689.2 | 680.7
328.15 K, 8210 kPa | 816.1 | 792.8 | 772.4 | 752.7 | 737.6 | 725.3 | 712.3 | 701.7 | 691.2 | 682.6
328.15 K, 10230 kPa | 818 | 794.7 | 774.4 | 754.7 | 739.6 | 727.3 | 714.3 | 703.7 | 693.2 | 684.6
328.15 K, 11250 kPa | 818.9 | 795.7 | 775.3 | 755.6 | 740.6 | 728.3 | 715.2 | 704.6 | 694.1 | 685.5
328.15 K, 12260 kPa | 819.9 | 796.6 | 776.3 | 756.6 | 741.5 | 729.2 | 716.2 | 705.6 | 695 | 686.4
328.15 K, 14290 kPa | 821.7 | 798.5 | 778.2 | 758.5 | 743.4 | 731.1 | 718.1 | 707.4 | 696.9 | 688.3
328.15 K, 16310 kPa | 823.6 | 800.4 | 780.1 | 760.4 | 745.3 | 733 | 719.9 | 709.3 | 698.7 | 690.1
328.15 K, 18340 kPa | 825.3 | 802.1 | 781.9 | 762.2 | 747.1 | 734.8 | 721.7 | 711.2 | 700.5 | 691.8
328.15 K, 20370 kPa | 827.1 | 803.9 | 783.6 | 763.9 | 748.9 | 736.6 | 723.4 | 713 | 702.2 | 693.6
328.15 K, 22390 kPa | 828.8 | 805.7 | 785.4 | 765.7 | 750.6 | 738.3 | 725.1 | 714.5 | 703.9 | 695.2
328.15 K, 24420 kPa | 830.5 | 807.4 | 787.1 | 767.4 | 752.3 | 740 | 726.8 | 716.2 | 705.6 | 696.9
328.15 K, 26450 kPa | 832.2 | 809.1 | 788.8 | 769.1 | 754 | 741.6 | 728.5 | 717.8 | 707.2 | 698.5
328.15 K, 28470 kPa | 833.8 | 810.7 | 790.4 | 770.7 | 755.6 | 743.2 | 730.1 | 719.4 | 708.8 | 700
328.15 K, 29490 kPa | 834.6 | 811.5 | 791.2 | 771.5 | 756.4 | 744 | 730.9 | 720.1 | 709.6 | 700.8
328.15 K, 30500 kPa | 835.4 | 812.3 | 792 | 772.3 | 757.2 | 744.8 | 731.7 | 720.9 | 710.3 | 701.6
328.15 K, 32530 kPa | 837 | 813.9 | 793.6 | 773.9 | 758.8 | 746.4 | 733.2 | 722.5 | 711.9 | 703
328.15 K, 34550 kPa | 838.5 | 815.5 | 795.2 | 775.4 | 760.3 | 747.9 | 734.7 | 724 | 713.4 | 704.5
328.15 K, 36580 kPa | 840 | 817 | 796.7 | 777 | 761.8 | 749.4 | 736.2 | 725.5 | 714.8 | 706
328.15 K, 38600 kPa | 841.5 | 818.5 | 798.2 | 778.4 | 763.3 | 750.9 | 737.7 | 726.9 | 716.2 | 707.4
328.15 K, 39620 kPa | 842.3 | 819.1 | 798.9 | 779.2 | 764 | 751.6 | 738.4 | 727.6 | 716.9 | 708.1
